Literature values as cited in US20120065140A1, “Biomarkers for the Diagnosis of Autoimmune Disease” (priority 2010, published 2012).

In the case of CN(Cc1cnc2nc(N)nc(N)c2n1)c1ccc(C(=O)N[C@@H](CCC(=O)O)C(=O)O)cc1 [MTX, Methotrexate], the onset of action (rheumatoid arthritis) is given as 4-6 weeks and the “patients having some response” value (rheumatoid arthritis patients) is given as 70%.
